From US12441703B2, “Carboxamides as modulators of sodium channels” (VERTEX PHARMACEUTICALS INCORPORATED, priority 2019, dated 2025)
pIC50: −log10 of the molar value.

target: human NaV 1.8 (Homo sapiens, UniProt Q9Y5Y9); assay: E-VIPR assay for detecting and measuring NaV inhibition properties; assay type: cell-based; settings: E-VIPR assay conducted in the presence of human serum; HEK cells expressing truncated human NaV 1.8; read-out: IC50
Summary of the method: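 HEK cells with truncated human NaV1.8 plus KIR2.1 BacMam, hexyl dye loaded 20 min, compound 30 min at room temperature, 11-point 3-fold series […], 0.625% DMSO, with or without human serum. E-VIPR biphasic stimulation at 10 Hz for 10 s; membrane-potential response read as normalized coumarin/oxonol ratio.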

Sequence of human NaV 1.8 (Q9Y5Y9 whole entry, looked up, the tested form may be a part): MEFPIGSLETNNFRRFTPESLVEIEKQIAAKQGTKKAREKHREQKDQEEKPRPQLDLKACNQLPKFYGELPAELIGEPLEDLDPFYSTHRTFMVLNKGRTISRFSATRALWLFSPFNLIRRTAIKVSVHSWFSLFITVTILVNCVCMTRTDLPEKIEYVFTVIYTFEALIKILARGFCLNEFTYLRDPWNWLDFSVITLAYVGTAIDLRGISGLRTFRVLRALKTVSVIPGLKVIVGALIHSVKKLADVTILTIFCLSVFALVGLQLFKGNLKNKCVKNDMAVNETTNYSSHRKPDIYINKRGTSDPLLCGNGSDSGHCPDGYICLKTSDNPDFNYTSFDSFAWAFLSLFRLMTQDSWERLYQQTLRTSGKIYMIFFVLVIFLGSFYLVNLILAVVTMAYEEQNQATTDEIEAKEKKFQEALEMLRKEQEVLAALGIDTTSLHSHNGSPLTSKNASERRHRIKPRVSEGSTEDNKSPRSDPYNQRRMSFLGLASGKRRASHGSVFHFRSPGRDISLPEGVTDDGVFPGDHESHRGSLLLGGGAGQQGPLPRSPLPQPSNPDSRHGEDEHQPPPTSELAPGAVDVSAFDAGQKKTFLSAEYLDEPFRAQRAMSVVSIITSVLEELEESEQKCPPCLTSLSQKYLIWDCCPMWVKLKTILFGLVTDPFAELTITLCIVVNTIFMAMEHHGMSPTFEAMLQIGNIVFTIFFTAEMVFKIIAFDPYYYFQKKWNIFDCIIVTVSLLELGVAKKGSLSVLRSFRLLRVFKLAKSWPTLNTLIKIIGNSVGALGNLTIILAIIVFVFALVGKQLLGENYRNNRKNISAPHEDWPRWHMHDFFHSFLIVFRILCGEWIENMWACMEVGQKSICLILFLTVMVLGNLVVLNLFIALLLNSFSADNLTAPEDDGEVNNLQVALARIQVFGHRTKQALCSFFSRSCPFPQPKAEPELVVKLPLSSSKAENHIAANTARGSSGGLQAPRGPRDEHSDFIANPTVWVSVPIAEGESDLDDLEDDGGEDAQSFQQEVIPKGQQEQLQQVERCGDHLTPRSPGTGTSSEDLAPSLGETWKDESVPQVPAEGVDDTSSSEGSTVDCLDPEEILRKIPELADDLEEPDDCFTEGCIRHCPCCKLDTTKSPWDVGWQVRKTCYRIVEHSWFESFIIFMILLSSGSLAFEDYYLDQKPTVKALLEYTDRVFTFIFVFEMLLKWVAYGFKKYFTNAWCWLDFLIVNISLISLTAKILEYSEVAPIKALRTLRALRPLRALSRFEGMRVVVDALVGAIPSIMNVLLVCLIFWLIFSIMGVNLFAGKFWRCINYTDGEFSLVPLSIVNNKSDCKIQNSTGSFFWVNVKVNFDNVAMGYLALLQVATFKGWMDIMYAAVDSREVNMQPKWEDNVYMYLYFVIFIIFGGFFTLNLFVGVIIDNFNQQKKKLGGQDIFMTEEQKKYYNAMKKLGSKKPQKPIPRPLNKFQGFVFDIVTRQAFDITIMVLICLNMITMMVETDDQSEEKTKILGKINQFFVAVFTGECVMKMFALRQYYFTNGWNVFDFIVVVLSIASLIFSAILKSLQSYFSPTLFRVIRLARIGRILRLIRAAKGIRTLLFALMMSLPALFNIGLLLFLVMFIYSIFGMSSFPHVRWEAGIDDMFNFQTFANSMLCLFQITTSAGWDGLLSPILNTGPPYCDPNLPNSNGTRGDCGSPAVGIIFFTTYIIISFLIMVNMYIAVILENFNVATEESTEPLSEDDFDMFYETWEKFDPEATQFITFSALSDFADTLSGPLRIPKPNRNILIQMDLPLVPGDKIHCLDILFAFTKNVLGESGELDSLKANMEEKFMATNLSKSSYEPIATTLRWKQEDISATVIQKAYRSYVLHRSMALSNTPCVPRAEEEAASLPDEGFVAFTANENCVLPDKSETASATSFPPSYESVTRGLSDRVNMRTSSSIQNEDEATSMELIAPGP

| SMILES | pIC50 |
| --- | --- |
| COc1cc(Oc2ccc(C(F)(F)F)c(OC)c2C(=O)Nc2ccnc(C(N)=O)c2)ccc1F [Compound 69, 4-[[6-(4-fluoro-3-methoxy-phenoxy)-2-methoxy-3-(trifluoromethyl)benzoyl]amino]pyridine-2-carboxamide] | < 5.52 |
| COc1c(C(F)(F)F)ccc(Oc2ccc(C(F)(F)F)nc2)c1C(=O)Nc1ccnc(C(N)=O)c1 [Compound 70, 4-[[2-methoxy-3-(trifluoromethyl)-6-[[6-(trifluoromethyl)-3-pyridyl]oxy]benzoyl]amino]pyridine-2-carboxamide] | < 5.52 |
| CC(C)Oc1ccc(Oc2cccc(C(F)(F)F)c2C(=O)Nc2ccnc(C(N)=O)c2)c(F)c1F [Compound 72, 4-[[2-(2,3-difluoro-4-isopropoxy-phenoxy)-6-(trifluoromethyl)benzoyl]amino]pyridine-2-carboxamide] | 6.25 |
| COc1nc(Cl)ccc1Oc1cccc(C(F)(F)F)c1C(=O)Nc1ccnc(C(N)=O)c1 [Compound 73, 4-[[2-[(6-chloro-2-methoxy-3-pyridyl)oxy]-6-(trifluoromethyl)benzoyl]amino]pyridine-2-carboxamide] | 5.82 |
| CC(C)Oc1ccc(Oc2cccc(C(F)(F)F)c2C(=O)Nc2ccnc(C(N)=O)c2)cc1F [Compound 74, 4-[[2-(3-fluoro-4-isopropoxy-phenoxy)-6-(trifluoromethyl)benzoyl]amino]pyridine-2-carboxamide] | 5.92 |
| COc1cc(F)ccc1Oc1cccc(C(F)(F)F)c1C(=O)Nc1ccnc(C(N)=O)c1 [Compound 75, 4-[[2-(4-fluoro-2-methoxy-phenoxy)-6-(trifluoromethyl)benzoyl]amino]pyridine-2-carboxamide] | 5.76 |
| NC(=O)c1cc(NC(=O)c2c(Oc3ccc(F)cc3F)cccc2C(F)(F)F)ccn1 [Compound 77, 4-[[2-(2,4-difluorophenoxy)-6-(trifluoromethyl)benzoyl]amino]pyridine-2-carboxamide] | < 5.52 |
| NC(=O)c1cc(NC(=O)c2c(Oc3ccc(F)c4c3OCC4)cccc2C(F)(F)F)ccn1 [Compound 78, 4-[[2-[(4-fluoro-2,3-dihydrobenzofuran-7-yl)oxy]-6-(trifluoromethyl)benzoyl]amino]pyridine-2-carboxamide] | < 5.52 |
| NC(=O)c1cc(NC(=O)c2c(Oc3ccc(F)cc3Cl)cccc2C(F)(F)F)ccn1 [Compound 79, 4-[[2-(2-chloro-4-fluoro-phenoxy)-6-(trifluoromethyl)benzoyl]amino]pyridine-2-carboxamide] | < 5.52 |
| NC(=O)c1cc(NC(=O)c2c(Oc3ccc(F)c(Cl)c3)cccc2C(F)(F)F)ccn1 [Compound 80, 4-[[2-(3-chloro-4-fluoro-phenoxy)-6-(trifluoromethyl)benzoyl]amino]pyridine-2-carboxamide] | < 5.52 |
| CC(C)Oc1ccc(Oc2cccc(C(F)(F)F)c2C(=O)Nc2ccnc(C(N)=O)c2)c(F)c1 [Compound 81, 4-[[2-(2-fluoro-4-isopropoxy-phenoxy)-6-(trifluoromethyl)benzoyl]amino]pyridine-2-carboxamide] | < 5.52 |
| COc1cc(OC(F)(F)F)ccc1Oc1ccc(C(F)(F)F)c(OCC(C)C)c1C(=O)Nc1ccnc(C(N)=O)c1 [Compound 82, 4-[[2-isobutoxy-6-[2-methoxy-4-(trifluoromethoxy)phenoxy]-3-(trifluoromethyl)benzoyl]amino]pyridine-2-carboxamide] | < 5.52 |
| COc1cc(OC(F)(F)F)ccc1Oc1ccc(C(F)(F)F)c(OCC2CC2)c1C(=O)Nc1ccnc(C(N)=O)c1 [Compound 84, 4-[[2-(cyclopropylmethoxy)-6-[2-methoxy-4-(trifluoromethoxy)phenoxy]-3-(trifluoromethyl)benzoyl]amino]pyridine-2-carboxamide] | 6.20 |
| COc1cc(OC(F)(F)F)ccc1Oc1ccc(C(F)(F)F)c(OCC2CC2(F)F)c1C(=O)Nc1ccnc(C(N)=O)c1 (centres unmarked) [Compound 86, 4-[[2-[(2,2-difluorocyclopropyl)methoxy]-6-[2-methoxy-4-(trifluoromethoxy)phenoxy]-3-(trifluoromethyl)benzoyl]amino]pyridine-2-carboxamide] | 6.00 |
| COc1cc(OC(F)(F)F)ccc1Oc1ccc(C(F)(F)F)c(NCC(C)C)c1C(=O)Nc1ccnc(C(N)=O)c1 [Compound 87, 4-[[2-(isobutylamino)-6-[2-methoxy-4-(trifluoromethoxy)phenoxy]-3-(trifluoromethyl)benzoyl]amino]pyridine-2-carboxamide] | 5.82 |
| [2H]C([2H])([2H])Oc1cc(OC(F)(F)F)ccc1Oc1cc(-c2ccncc2)cc(F)c1C(=O)Nc1ccnc(C(N)=O)c1 [Compound 91, 4-[[2-fluoro-4-(4-pyridyl)-6-[2-(trideuteriomethoxy)-4-(trifluoromethoxy)phenoxy]benzoyl]amino]pyridine-2-carboxamide] | 6.36 |
| [2H]C([2H])([2H])Oc1cc(OC(F)(F)F)ccc1Oc1cc(C(F)(F)F)c(F)cc1C(=O)Nc1ccc(C(N)=O)nc1 [Compound 100, 5-[[5-fluoro-2-[2-(trideuteriomethoxy)-4-(trifluoromethoxy)phenoxy]-4-(trifluoromethyl)benzoyl]amino]pyridine-2-carboxamide] | 6.20 |

These reach a higher pIC50. Values come first.

| pIC50 | SMILES |
| --- | --- |
| 6.42 | [2H]C([2H])([2H])Oc1cc(OC(F)(F)F)ccc1Oc1cc(C(F)(F)F)c(F)cc1C(=O)Nc1ccnc(C(N)=O)c1 [Compound 99, 4-[[5-fluoro-2-[2-(trideuteriomethoxy)-4-(trifluoromethoxy)phenoxy]-4-(trifluoromethyl)benzoyl]amino]pyridine-2-carboxamide] |
| 6.54 | COc1c(C(F)(F)F)ccc(Oc2ccc(F)c3c2OCC3)c1C(=O)Nc1ccnc(C(N)=O)c1 [Compound 68, 4-[[6-[(4-fluoro-2,3-dihydrobenzofuran-7-yl)oxy]-2-methoxy-3-(trifluoromethyl)benzoyl]amino]pyridine-2-carboxamide] |
| 6.68 | [2H]C([2H])([2H])Oc1cc(OC(F)(F)F)ccc1Oc1cc(-c2cccnc2)cc(F)c1C(=O)Nc1ccnc(C(N)=O)c1 [Compound 90, 4-[[2-fluoro-4-(3-pyridyl)-6-[2-(trideuteriomethoxy)-4-(trifluoromethoxy)phenoxy]benzoyl]amino]pyridine-2-carboxamide] |
| 6.74 | COc1cc(OC(F)(F)F)ccc1Oc1ccc(C(F)(F)F)c(OC2CC2)c1C(=O)Nc1ccnc(C(N)=O)c1 [Compound 85, 4-[[2-(cyclopropoxy)-6-[2-methoxy-4-(trifluoromethoxy)phenoxy]-3-(trifluoromethyl)benzoyl]amino]pyridine-2-carboxamide] |
| 6.80 | CCOc1c(C(F)(F)F)ccc(Oc2ccc(OC(F)(F)F)cc2OC)c1C(=O)Nc1ccnc(C(N)=O)c1 [Compound 83, 4-[[2-ethoxy-6-[2-methoxy-4-(trifluoromethoxy)phenoxy]-3-(trifluoromethyl)benzoyl]amino]pyridine-2-carboxamide] |
| 6.85 | [2H]C([2H])([2H])Oc1cc(OC(F)(F)F)ccc1Oc1cc(-c2ccccc2C(F)(F)F)cc(F)c1C(=O)Nc1ccnc(C(N)=O)c1 [Compound 95, 4-[[2-fluoro-6-[2-(trideuteriomethoxy)-4-(trifluoromethoxy)phenoxy]-4-[2-(trifluoromethyl)phenyl]benzoyl]amino]pyridine-2-carboxamide] |
| 6.96 | COc1c(C(F)(F)F)ccc(Oc2ccc(OC(C)C)c(F)c2)c1C(=O)Nc1ccnc(C(N)=O)c1 [Compound 67, 4-[[6-(3-fluoro-4-isopropoxy-phenoxy)-2-methoxy-3-(trifluoromethyl)benzoyl]amino]pyridine-2-carboxamide] |
| 7.20 | [2H]C([2H])([2H])Oc1cc(OC(F)(F)F)ccc1Oc1cc(-c2ccccc2)cc(F)c1C(=O)Nc1ccnc(C(N)=O)c1 [Compound 92, 4-[[2-fluoro-4-phenyl-6-[2-(trideuteriomethoxy)-4-(trifluoromethoxy)phenoxy]benzoyl]amino]pyridine-2-carboxamide] |
| 7.41 | [2H]C([2H])([2H])Oc1cc(OC(F)(F)F)ccc1Oc1cc(-c2ccc(C)cc2)cc(F)c1C(=O)Nc1ccnc(C(N)=O)c1 [Compound 88, 4-[[2-fluoro-4-(p-tolyl)-6-[2-(trideuteriomethoxy)-4-(trifluoromethoxy)phenoxy]benzoyl]amino]pyridine-2-carboxamide] |
| 7.41 | [2H]C([2H])([2H])Oc1cc(OC(F)(F)F)ccc1Oc1cc(-c2cccc(C(F)(F)F)c2)cc(F)c1C(=O)Nc1ccnc(C(N)=O)c1 [Compound 94, 4-[[2-fluoro-6-[2-(trideuteriomethoxy)-4-(trifluoromethoxy)phenoxy]-4-[3-(trifluoromethyl)phenyl]benzoyl]amino]pyridine-2-carboxamide] |
| 7.44 | [2H]C([2H])([2H])Oc1cc(OC(F)(F)F)ccc1Oc1cc(-c2ccc(F)cc2)cc(F)c1C(=O)Nc1ccnc(C(N)=O)c1 [Compound 89, 4-[[2-fluoro-4-(4-fluorophenyl)-6-[2-(trideuteriomethoxy)-4-(trifluoromethoxy)phenoxy]benzoyl]amino]pyridine-2-carboxamide] |
| 7.64 | [2H]C([2H])([2H])Oc1cc(OC(F)(F)F)ccc1Oc1cc(C2CCC(F)(F)CC2)cc(F)c1C(=O)Nc1ccnc(C(N)=O)c1 [Compound 98] |
| 7.85 | [2H]C([2H])([2H])Oc1cc(OC(F)(F)F)ccc1Oc1cc(C2CCCCC2)cc(F)c1C(=O)Nc1ccnc(C(N)=O)c1 [Compound 97] |
| 7.89 | [2H]C([2H])([2H])Oc1cc(OC(F)(F)F)ccc1Oc1cc(-c2ccc(C(F)(F)F)cc2)cc(F)c1C(=O)Nc1ccnc(C(N)=O)c1 [Compound 93, 4-[[2-fluoro-6-[2-(trideuteriomethoxy)-4-(trifluoromethoxy)phenoxy]-4-[4-(trifluoromethyl)phenyl]benzoyl]amino]pyridine-2-carboxamide] |
| 7.89 | [2H]C([2H])([2H])Oc1cc(OC(F)(F)F)ccc1Oc1cc(C2CCCC2)cc(F)c1C(=O)Nc1ccnc(C(N)=O)c1 [Compound 96, 4-[[4-Cyclopentyl-2-Fluoro-6-[2-(Trideuteriomethoxy)-4-(Trifluoromethoxy)Phenoxy]Benzoyl]Amino]Pyridine-2-Carboxamide] |
